Measured values reported in PubChem BioAssay (NCI).
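Exposure lasted 48 hours, with cells grown in 96-well plates and compounds tested at five concentrations. TGI: total growth inhibition.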

Tests used:
Experiment in all cases: growth of human tumour cells (NCI), 48 h
[1] = test system: OVCAR-4 ovarian
[2] = test system: MOLT-4 leukemia
[3] = test system: HOP-18 NSCLC
[4] = test system: SNB-19 CNS
[5] = test system: SF-268 CNS
[6] = test system: OVCAR-5 ovarian
[7] = test system: NCI-H460 lung
[8] = test system: UACC-257 melanoma
[9] = test system: SK-MEL-2 melanoma
[10] = test system: SK-MEL-28 melanoma
[11] = test system: KM12 colon
[12] = test system: ACHN renal
[13] = test system: CCRF-CEM leukemia
[14] = test system: HL-60(TB) leukemia
[15] = test system: DLD-1 colon
[16] = test system: DMS 114 small cell lung
[17] = test system: OVCAR-8 ovarian
[18] = test system: HCT-15 colon
[19] = test system: NCI-H23 lung
[20] = test system: SW-620 colon
[21] = test system: XF 498 CNS
[22] = test system: LXFL 529 NSCLC
[23] = test system: HOP-92 NSCLC
[24] = test system: IGROV1 ovarian
[25] = test system: RXF 393 renal
[26] = test system: HCT-116 colon
[27] = test system: MALME-3M melanoma
[28] = test system: DMS 273 small cell lung
[29] = test system: NCI-H226 lung
[30] = test system: M14 melanoma
[31] = test system: SF-295 CNS
[32] = test system: SR leukemia
[33] = test system: HCC-2998 colon
[34] = test system: SK-OV-3 ovarian
[35] = test system: A498 renal
[36] = test system: SNB-78 CNS
[37] = test system: 786-0 renal
[38] = test system: SN12C renal
[39] = test system: U251 CNS
[40] = test system: UACC-62 melanoma
[41] = test system: HT29 colon
[42] = test system: SF-539 CNS
[43] = test system: HOP-62 NSCLC
[44] = test system: RPMI-8226 leukemia
[45] = test system: NCI-H522 lung
[46] = test system: TK-10 renal
[47] = test system: K-562 leukemia
[48] = test system: KM20L2 colon
[49] = test system: SNB-75 CNS
[50] = test system: EKVX NSCLC
[51] = test system: UO-31 renal
[52] = test system: LOX IMVI melanoma
[53] = test system: SK-MEL-5 melanoma
[54] = test system: RXF-631 renal
[55] = test system: A549 NSCLC
[56] = test system: COLO 205 colon
[57] = test system: CAKI-1 renal
[58] = test system: M19-MEL melanoma
[59] = test system: OVCAR-3 ovarian

Compound: CCCCCCCCCCCCOC(=S)NC
- TGI [1]: 56 µM
- TGI [2]: 32.1 µM
- TGI [3]: 50.1 µM
- TGI [4]: > 100 µM
- TGI [5]: 36 µM
- TGI [6]: 25.3 µM
- TGI [7]: 34 µM
- TGI [8]: 42.2 µM
- TGI [9]: 28.1 µM
- TGI [10]: 44 µM
- TGI [11]: 27.8 µM
- TGI [12]: 35.2 µM
- TGI [13]: > 100 µM
- TGI [14]: > 100 µM
- TGI [15]: 34.3 µM
- TGI [16]: 37.5 µM
- TGI [17]: 32.9 µM
- TGI [18]: 32.5 µM
- TGI [19]: 40.9 µM
- TGI [20]: 32.6 µM
- TGI [21]: 35.7 µM
- TGI [22]: 31.4 µM
- TGI [23]: 31.5 µM
- TGI [24]: 38.9 µM
- TGI [25]: 32.5 µM
- TGI [26]: 30.8 µM
- TGI [27]: 39.6 µM
- TGI [28]: 34.4 µM
- TGI [29]: 15.2 µM
- TGI [30]: 37.1 µM
- TGI [31]: 43.9 µM
- TGI [32]: 34.6 µM
- TGI [33]: 32 µM
- TGI [34]: 58 µM
- TGI [35]: 41.5 µM
- TGI [36]: 61.8 µM
- TGI [37]: 34.2 µM
- TGI [38]: 31.7 µM
- TGI [39]: 32.8 µM
- TGI [40]: 31 µM
- TGI [41]: 33.1 µM
- TGI [42]: 33.5 µM
- TGI [43]: 37.3 µM
- TGI [44]: 36.1 µM
- TGI [45]: 58 µM
- TGI [46]: 25.4 µM
- TGI [47]: 45.9 µM
- TGI [48]: 33.9 µM
- TGI [49]: 74.6 µM
- TGI [50]: 36.7 µM
- TGI [51]: 43.7 µM
- TGI [52]: 27.4 µM

Compound: O=C(O)C1=C(Cl)c2ccccc2S1(=O)=O
- TGI [1]: > 100 µM
- TGI [2]: > 100 µM
- TGI [4]: > 100 µM
- TGI [5]: > 100 µM
- TGI [6]: > 100 µM
- TGI [7]: > 100 µM
- TGI [8]: > 100 µM
- TGI [9]: > 100 µM
- TGI [10]: > 100 µM
- TGI [11]: > 100 µM
- TGI [13]: > 100 µM
- TGI [14]: > 100 µM
- TGI [15]: > 100 µM
- TGI [53]: > 100 µM
- TGI [16]: > 100 µM
- TGI [17]: > 100 µM
- TGI [18]: > 100 µM
- TGI [19]: > 100 µM
- TGI [20]: > 100 µM
- TGI [21]: > 100 µM
- TGI [22]: > 100 µM
- TGI [23]: > 100 µM
- TGI [24]: > 100 µM
- TGI [25]: > 100 µM
- TGI [54]: > 100 µM
- TGI [55]: > 100 µM
- TGI [56]: > 100 µM
- TGI [27]: > 100 µM
- TGI [57]: > 100 µM
- TGI [30]: > 100 µM
- TGI [31]: > 100 µM
- TGI [33]: > 100 µM
- TGI [34]: > 100 µM
- TGI [36]: > 100 µM
- TGI [37]: > 100 µM
- TGI [38]: > 100 µM
- TGI [40]: > 100 µM
- TGI [43]: > 100 µM
- TGI [44]: > 100 µM
- TGI [45]: 40.7 µM
- TGI [46]: > 100 µM
- TGI [47]: > 100 µM
- TGI [48]: > 100 µM
- TGI [49]: > 100 µM
- TGI [58]: > 100 µM
- TGI [50]: > 100 µM
- TGI [51]: > 100 µM
- TGI [52]: > 100 µM

Compound: CCCCCCCCCCCCCCCCCCOCC1(COP(=O)([O-])OCC[N+](C)(C)C)CCCO1 (stereo not given)
- TGI [1]: 8.38 µM
- TGI [2]: 4.84 µM
- TGI [3]: 10.9 µM
- TGI [4]: 11.1 µM
- TGI [5]: 18.2 µM
- TGI [6]: 25.1 µM
- TGI [7]: 3.23 µM
- TGI [8]: 27.3 µM
- TGI [9]: 22.8 µM
- TGI [10]: 32.2 µM
- TGI [11]: 3.33 µM
- TGI [59]: 15.7 µM
- TGI [12]: 19.4 µM
- TGI [13]: 11.6 µM
- TGI [14]: 5.24 µM
- TGI [15]: 12.5 µM
- TGI [53]: 27.7 µM
- TGI [16]: 18.1 µM
- TGI [17]: 26.5 µM
- TGI [19]: 31.9 µM
- TGI [21]: 20.5 µM
- TGI [22]: 16.6 µM
- TGI [23]: 6.09 µM
- TGI [24]: 6.63 µM
- TGI [25]: 1.89 µM
- TGI [55]: 20.6 µM
- TGI [56]: 3.63 µM
- TGI [26]: 22 µM
- TGI [27]: 26.2 µM
- TGI [28]: 3.13 µM
- TGI [29]: 20.1 µM
- TGI [30]: 8.59 µM
- TGI [31]: 6.84 µM
- TGI [33]: 4.68 µM
- TGI [34]: 27.7 µM
- TGI [35]: 11.8 µM
- TGI [36]: 29.5 µM
- TGI [37]: 13.6 µM
- TGI [38]: 5.81 µM
- TGI [39]: 7.03 µM
- TGI [40]: 21.4 µM
- TGI [41]: 12.4 µM
- TGI [42]: 29.4 µM
- TGI [43]: 9.45 µM
- TGI [44]: 8.55 µM
- TGI [45]: 6.23 µM
- TGI [46]: 3.54 µM
- TGI [47]: 31.7 µM
- TGI [48]: 11.9 µM
- TGI [49]: 18.3 µM
- TGI [58]: 10.8 µM
- TGI [51]: 21.9 µM
- TGI [52]: 19.3 µM

Compound: CCN1CCC(O)(c2ccc(Cl)c(Cl)c2)C(C(=O)c2ccc(Cl)c(Cl)c2)C1 (stereo not given)
- TGI [1]: 32.6 µM
- TGI [2]: 32.4 µM
- TGI [4]: 35.1 µM
- TGI [5]: 38.6 µM
- TGI [6]: 35.7 µM
- TGI [7]: 43.6 µM
- TGI [8]: 32 µM
- TGI [9]: 31.9 µM
- TGI [10]: 33 µM
- TGI [59]: 27 µM
- TGI [12]: 28.3 µM
- TGI [13]: 36.6 µM
- TGI [14]: 33.4 µM
- TGI [15]: 33 µM
- TGI [53]: 31.5 µM
- TGI [16]: 33.9 µM
- TGI [17]: 41 µM
- TGI [18]: 36.6 µM
- TGI [19]: 36.3 µM
- TGI [20]: 38.7 µM
- TGI [21]: 34.4 µM
- TGI [22]: 30.1 µM
- TGI [23]: 29 µM
- TGI [24]: 41.3 µM
- TGI [55]: 40.7 µM
- TGI [56]: 31.7 µM
- TGI [26]: 32.4 µM
- TGI [27]: 33.6 µM
- TGI [57]: 32.6 µM
- TGI [28]: 34 µM
- TGI [29]: 40.1 µM
- TGI [30]: 30.9 µM
- TGI [31]: 31.9 µM
- TGI [33]: 35.1 µM
- TGI [34]: 32.8 µM
- TGI [35]: 40.2 µM
- TGI [37]: 29.1 µM
- TGI [38]: 35 µM
- TGI [39]: 35.9 µM
- TGI [40]: 31.5 µM
- TGI [41]: 32.2 µM
- TGI [42]: 32.1 µM
- TGI [43]: 33.9 µM
- TGI [44]: 5.72 µM
- TGI [45]: 13 µM
- TGI [46]: 30.5 µM
- TGI [47]: 37.7 µM
- TGI [48]: 36.6 µM
- TGI [49]: 28.5 µM
- TGI [50]: 33.6 µM
- TGI [51]: 31.4 µM
- TGI [52]: 34 µM
